The record followed here is patent US10112941B2, “Tricyclic compounds as anticancer agents” (BRISTOL-MYERS SQUIBB COMPANY, priority 2013, dated 2018).

Bounds are passed on as bounds.

In general, IC50 refers to the concentration at which inhibition is half-maximal.

The target in the first test is BRD4 (Homo sapiens, UniProt O60885). Briefly: Time Resolved Fluorescence Resonance Energy Transfer (TR-FRET) binding assay, BRD4. Particulars: FRET BRD4 IC50 (nM), one of the FRET assays described. On the technique in general: In TR-FRET formats the signal depends on donor and acceptor labels being close together.
Molecule `[2H]C([2H])([2H])c1onc(C)c1-c1cnc2c3ccc(C(C)(C)O)cc3n([C@H](c3ccc(F)cc3)C3CCOCC3)c2c1` [Example 284, 2-{5-[(S)-(4-Fluorophenyl)(oxan-4-yl)methyl]-3-[5-(^2H3)methyl-3-methyl-1,2-oxazol-4-yl]-5H-pyrido[3,2-b]indol-7-yl}propan-2-ol] registered an IC50 of less than 5 nM.

Staying with this test, now noted: one of the FRET assays described; read-out: FRET BRD4 IC50.
As to `[2H]C([2H])([2H])c1nnn(C)c1-c1cnc2c3ccc(C(C)(C)O)cc3n(C(c3ccc(F)cc3F)C3CCOCC3)c2c1` (centres unmarked) [Example 280, 2-{5-[(2,4-Difluorophenyl)(oxan-4-yl)methyl]-3-[4-(^2H3)methyl-1-methyl-1H-1,2,3-triazol-5-yl]-5H-pyrido[3,2-b]indol-7-yl}propan-2-ol], the IC50 was less than 5 nM.

On to `[2H]C([2H])([2H])c1nnn(C)c1-c1cnc2c3ccc(C(C)(C)O)cc3n(C(c3ccc(F)cc3F)C3CCOCC3)c2c1` (centres unmarked) [Example 281, 2-{5-[(2,4-Difluorophenyl)(oxan-4-yl)methyl]-3-[4-(^2H3)methyl-1-methyl-1H-1,2,3-triazol-5-yl]-5H-pyrido[3,2-b]indol-7-yl}propan-2-ol], for which the IC50 is less than 5 nM.

For `[2H]C([2H])([2H])c1nnn(C)c1-c1cnc2c3ccc(C(C)(C)O)c(F)c3n(C(c3ccc(F)cc3F)C3CCOCC3)c2c1` (centres unmarked) [Example 282, 2-{5-[(2,4-Difluorophenyl)(oxan-4-yl)methyl]-6-fluoro-3-[4-(^2H3)methyl-1-methyl-1H-1,2,3-triazol-5-yl]-5H-pyrido[3,2-b]indol-7-yl}propan-2-ol], the IC50 was less than 5 nM.

Regarding `[2H]C([2H])([2H])c1nnn(C)c1-c1cnc2c3ccc(C(C)(C)O)c(F)c3n(C(c3ccc(F)cc3F)C3CCOCC3)c2c1` (centres unmarked) [Example 283, 2-{5-[(2,4-Difluorophenyl)(oxan-4-yl)methyl]-6-fluoro-3-[4-(^2H3)methyl-1-methyl-1H-1,2,3-triazol-5-yl]-5H-pyrido[3,2-b]indol-7-yl}propan-2-ol], the IC50 is less than 5 nM.

As for `[2H]C([2H])([2H])c1onc(C)c1-c1cnc2c3ccc(C(C)(C)O)cc3n([C@H](c3ccccc3F)C3CCOCC3)c2c1` [Example 285, 2-{5-[(S)-(2-Fluorophenyl)(oxan-4-yl)methyl]-3-[5-(^2H3)methyl-3-methyl-1,2-oxazol-4-yl]-5H-pyrido[3,2-b]indol-7-yl}propan-2-ol], the IC50 is less than 5 nM.

Regarding `COc1cnccc1C(C1CCOCC1)n1c2cc(C(C)(C)O)ccc2c2ncc(-c3c(C)nnn3C)cc21` (centres unmarked) [Example 291], the IC50 is less than 5 nM.

Consider `[2H]C([2H])([2H])c1nnn(C)c1-c1cnc2c3ccc(C(C)(C)O)cc3n(C(c3cc(C)on3)C3CCOCC3)c2c1` (centres unmarked) [Example 308, 2-{5-[(5-Methyl-1,2-oxazol-3-yl)(oxan-4-yl)methyl]-3-[4-(^2H3)methyl-1-methyl-1H-1,2,3-triazol-5-yl]-5H-pyrido[3,2-b]indol-7-yl}propan-2-ol], for which the IC50 is less than 5 nM.

With `[2H]C([2H])([2H])c1nnn(C)c1-c1cnc2c3ccc(C(C)(C)O)cc3n(C(c3cc(C)on3)C3CCOCC3)c2c1` (centres unmarked) [Example 309, 2-{5-[(5-Methyl-1,2-oxazol-3-yl)(oxan-4-yl)methyl]-3-[4-(^2H3)methyl-1-methyl-1H-1,2,3-triazol-5-yl]-5H-pyrido[3,2-b]indol-7-yl}propan-2-ol], the IC50 is less than 25 nM.

With `[2H]c1c(C([2H])(C2CCOCC2)n2c3cc(C(C)(C)O)ccc3c3ncc(-c4c(C)noc4C([2H])([2H])[2H])cc32)noc1C([2H])([2H])[2H]` (centres unmarked) [Example 327], the IC50 was less than 5 nM.

In the case of `[2H]c1c(C([2H])(C2CCOCC2)n2c3cc(C(C)(C)O)ccc3c3ncc(-c4c(C)noc4C([2H])([2H])[2H])cc32)noc1C([2H])([2H])[2H]` (centres unmarked) [Example 328], the IC50 was less than 25 nM.

For `[2H]C([2H])([2H])c1nnn(C)c1-c1cnc2c3cc(F)c(C(C)(O)C4CC4)cc3n(C(c3cc(C)on3)C3CCOCC3)c2c1` (centres unmarked) [Example 329], the IC50 is less than 25 nM.

Consider `[2H]C([2H])([2H])c1nnn(C)c1-c1cnc2c3ccc(S(C)(=O)=O)cc3n(C(c3cc(C)on3)C3CCOCC3)c2c1` (centres unmarked) [Example 330, 5-{7-Methanesulfonyl-5-[(5-methyl-1,2-oxazol-3-yl)(oxan-4-yl)methyl]-5H-pyrido[3,2-b]indol-3-yl}-4-(^2H3)methyl-1-methyl-1H-1,2,3-triazole], for which the IC50 was less than 25 nM.

In the case of `[2H]C([2H])([2H])c1nnn(C)c1-c1cnc2c3ccc(S(C)(=O)=O)cc3n(C(c3cc(C)on3)C3CCOCC3)c2c1` (centres unmarked) [Example 331, 5-{7-Methanesulfonyl-5-[(5-methyl-1,2-oxazol-3-yl)(oxan-4-yl)methyl]-5H-pyrido[3,2-b]indol-3-yl}-4-(^2H3)methyl-1-methyl-1H-1,2,3-triazole], the IC50 was less than 5 nM.

On to `Cc1nnn(C)c1-c1cnc2c3ccc(CS(C)(=O)=O)cc3n([C@H](c3ncccc3F)C3CCOCC3)c2c1` [Example 332], for which the IC50 was less than 5 nM.

For `Cc1nnn(C)c1-c1cnc2c3ccc(CS(C)(=O)=O)cc3n([C@@H](c3ncccc3F)C3CCOCC3)c2c1` [Example 333], the IC50 was less than 5 nM.

As to `Cc1nnn(C)c1-c1cnc2c3ccc(CS(C)(=O)=O)cc3n([C@@H](c3ccc(Cl)cn3)C3CCOCC3)c2c1` [Example 334], the IC50 was less than 5 nM.

Turning to `Cc1nnn(C)c1-c1cnc2c3ccc(CS(C)(=O)=O)cc3n([C@H](c3cc(Cl)ccn3)C3CCOCC3)c2c1` [Example 335], the IC50 is less than 5 nM.

Consider `COc1ccnc([C@H](C2CCOCC2)n2c3cc(CS(C)(=O)=O)ccc3c3ncc(-c4c(C)nnn4C)cc32)c1` [Example 336], for which the IC50 was less than 5 nM.

With `Cc1ccnc([C@H](C2CCOCC2)n2c3cc(CS(C)(=O)=O)ccc3c3ncc(-c4c(C)nnn4C)cc32)c1` [Example 337], the IC50 is less than 5 nM.

Consider `Cc1ccc([C@H](C2CCOCC2)n2c3cc(CS(C)(=O)=O)ccc3c3ncc(-c4c(C)nnn4C)cc32)nc1` [Example 338], for which the IC50 is less than 5 nM.

Regarding `Cc1nnn(C)c1-c1cnc2c3ccc(CS(C)(=O)=O)cc3n([C@H](c3ncccc3Cl)C3CCOCC3)c2c1` [Example 339], the IC50 is less than 5 nM.

As to `Cc1nnn(C)c1-c1cnc2c3ccc(CS(C)(=O)=O)cc3n([C@@H](c3ncccc3Cl)C3CCOCC3)c2c1` [Example 340], the IC50 was less than 5 nM.

With `[2H]C([2H])([2H])c1onc(C)c1-c1cnc2c3ccc(C(C)(C)O)cc3n(C([2H])(c3ccncc3F)C3CCOCC3)c2c1` (centres unmarked) [Example 343, 2-{5-[(3-Fluoropyridin-4-yl)(oxan-4-yl)(^2H)methyl]-3-[5-(^2H3)methyl-3-methyl-1,2-oxazol-4-yl]-5H-pyrido[3,2-b]indol-7-yl}propan-2-ol], the IC50 is less than 5 nM.

For `[2H]C([2H])([2H])c1onc(C)c1-c1cnc2c3ccc(C(C)(C)O)cc3n(C([2H])(c3ccncc3F)C3CCOCC3)c2c1` (centres unmarked) [Example 344, 2-{5-[(3-Fluoropyridin-4-yl)(oxan-4-yl)(^2H)methyl]-3-[5-(^2H3)methyl-3-methyl-1,2-oxazol-4-yl]-5H-pyrido[3,2-b]indol-7-yl}propan-2-ol], the IC50 was less than 5 nM.

As for `[2H]C([2H])([2H])c1nnn(C)c1-c1cnc2c3c(OC)cc(C(C)(C)O)cc3n(C(c3ccncc3F)C3CCOCC3)c2c1` (centres unmarked) [Example 347, 2-{5-[(3-Fluoropyridin-4-yl)(oxan-4-yl)methyl]-9-methoxy-3-[4-(^2H3)methyl-1-methyl-1H-1,2,3-triazol-5-yl]-5H-pyrido[3,2-b]indol-7-yl}propan-2-ol], the IC50 was less than 5 nM.
